# Source: ChEMBL document CHEMBL4665686, “Dehydrohispanolone Derivatives Attenuate the Inflammatory Response through the Modulation of Inflammasome Activation” (J Nat Prod, 2020)
# Activity calls are given as the source filed them. The rule behind the calls is not given here.
# What was measured:
# [1] = tested on: J774.A1; test: Cytotoxicity against mouse J774.A1 cells assessed as cell viability at 10 to 20 uM after 24 hrs by MTT assay; assay type: cell-based; details: j774.a1, 24 h, dose 10-20 µM
# [2] = biological target: NACHT, LRR and PYD domains-containing protein 3 (Mus musculus) (UniProt Q8R4B8); details: J774.A1, dose 300.0 nM, time 45.0 min
# NACHT, LRR and PYD domains-containing protein 3 (Mus musculus), sequence (Q8R4B8 whole entry, the tested form may be a part): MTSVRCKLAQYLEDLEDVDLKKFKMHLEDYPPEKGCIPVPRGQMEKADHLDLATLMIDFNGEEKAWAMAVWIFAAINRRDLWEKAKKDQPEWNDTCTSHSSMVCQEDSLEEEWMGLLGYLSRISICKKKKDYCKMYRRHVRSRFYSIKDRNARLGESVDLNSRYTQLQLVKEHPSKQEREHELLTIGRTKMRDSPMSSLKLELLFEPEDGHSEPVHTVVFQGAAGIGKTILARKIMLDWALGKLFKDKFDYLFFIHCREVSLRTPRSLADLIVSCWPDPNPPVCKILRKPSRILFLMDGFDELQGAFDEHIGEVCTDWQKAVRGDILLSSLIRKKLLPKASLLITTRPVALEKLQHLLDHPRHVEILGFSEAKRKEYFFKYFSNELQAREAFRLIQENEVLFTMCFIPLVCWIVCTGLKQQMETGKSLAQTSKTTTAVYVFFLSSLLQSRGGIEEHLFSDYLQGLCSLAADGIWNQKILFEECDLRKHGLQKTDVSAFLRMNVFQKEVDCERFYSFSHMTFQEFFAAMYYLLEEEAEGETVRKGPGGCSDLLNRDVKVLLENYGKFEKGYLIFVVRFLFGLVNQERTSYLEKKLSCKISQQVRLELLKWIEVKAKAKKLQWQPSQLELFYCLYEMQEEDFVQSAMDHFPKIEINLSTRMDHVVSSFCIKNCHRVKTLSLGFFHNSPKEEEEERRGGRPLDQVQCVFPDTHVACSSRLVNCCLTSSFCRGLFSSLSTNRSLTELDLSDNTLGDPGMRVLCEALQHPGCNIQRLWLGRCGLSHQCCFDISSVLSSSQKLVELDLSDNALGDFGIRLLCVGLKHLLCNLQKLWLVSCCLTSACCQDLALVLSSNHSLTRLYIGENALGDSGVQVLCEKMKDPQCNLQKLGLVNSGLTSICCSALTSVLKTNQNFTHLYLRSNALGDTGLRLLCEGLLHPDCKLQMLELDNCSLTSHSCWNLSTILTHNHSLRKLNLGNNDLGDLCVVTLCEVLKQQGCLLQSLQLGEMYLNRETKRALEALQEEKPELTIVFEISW
# [3] = biological target: NACHT, LRR and PYD domains-containing protein 3 (Mus musculus) (UniProt Q8R4B8); test: Inhibition of NLRP3 in mouse J774A.1 cells assessed as inhibition of LPS-induced NO production at 20 uM measured after 24 hrs by Griess reagent; assay type: cell-based; details: J774.A1
# [4] = biological target: NACHT, LRR and PYD domains-containing protein 3 (Mus musculus) (UniProt Q8R4B8); test: Inhibition of NLRP3 in mouse J774A.1 cells assessed as inhibition of LPS and nigerecin-induced IL-1beta production at 20 uM pre-stimulated with LPS for 5 hrs followed by compound treatment for 30 mins and then nigericin addition for 45 mins by ELISA; assay type: cell-based; details: J774.A1, time 75.0 min
# [5] = biological target: NACHT, LRR and PYD domains-containing protein 3 (Mus musculus, UniProt Q8R4B8); test: Inhibition of NLRP3 in mouse J774A.1 cells assessed as inhibition of LPS and nigerecin-induced IL-1beta production pre-stimulated with LPS for 5 hrs followed by compound treatment for 30 mins and then nigericin addition for 45 mins by ELISA; assay type: cell-based, J774.A1
# NACHT, LRR and PYD domains-containing protein 3, sequence (Q8R4B8 whole entry, the tested form may be a part): as above
# [6] = biological target: NACHT, LRR and PYD domains-containing protein 3 (Mus musculus) (UniProt Q8R4B8); test: Inhibition of NLRP3 in mouse J774A.1 cells assessed as inhibition of LPS and nigericin-induced cleaved IL-1beta production at 20 uM pre-stimulated with LPS for 5 hrs before compound addition with ATP for 45 mins by Western blot analysis; assay type: cell-based; details: J774.A1
# [7] = biological target: NACHT, LRR and PYD domains-containing protein 3 (Mus musculus) (UniProt Q8R4B8); test: Inhibition of NLRP3 in mouse J774A.1 cells assessed as inhibition of LPS and ATP-induced IL-1beta production at 20 uM pre-stimulated with LPS for 5 hrs followed by compound treatment for 30 mins and then ATP addition for 45 mins by ELISA; assay type: cell-based; details: J774.A1, time 75.0 min
# [8] = biological target: NACHT, LRR and PYD domains-containing protein 3 (Mus musculus) (UniProt Q8R4B8); test: Inhibition of NLRP3 in mouse J774A.1 cells assessed as inhibition of LPS and MSU-induced IL-1beta production at 20 uM pre-stimulated with LPS for 5 hrs followed by compound treatment for 30 mins and then MSU addition for 24 hrs by ELISA; assay type: cell-based; details: J774.A1, time 24.5 hrs
SMILES,Activity [1],other results
CC1=C(CCc2ccoc2)[C@@]2(C)CCCC(C)(C)[C@@H]2C/C1=N/O,Non-Toxic,–
CC1=C(CCc2ccoc2)[C@@]2(C)CCCC(C)(C)[C@@H]2CC1N (some centres undefined),Toxic,–
CC1=C(CCc2ccoc2)[C@@]2(C)CCCC(C)(C)[C@@H]2C/C1=N/OC(=O)c1cccc(C(=O)O/N=C2/C[C@H]3C(C)(C)CCC[C@]3(C)C(CCc3ccoc3)=C2C)n1,Non-Toxic,–
CO/N=C1/C[C@H]2C(C)(C)CCC[C@]2(C)C(CCc2ccoc2)=C1C,Non-Toxic,–
CC1=C(CCc2ccoc2)[C@@]2(C)CCCC(C)(C)[C@@H]2C/C1=N/OC(=O)CCCCC(=O)O/N=C1/C[C@H]2C(C)(C)CCC[C@]2(C)C(CCc2ccoc2)=C1C,Non-Toxic,–
CC1=C(CCc2ccoc2)[C@@]2(C)CCCC(C)(C)[C@@H]2C[C@@H]1O,Toxic,–
CC(C)(O)c1coc(S(=O)(=O)NC(=O)Nc2c3c(cc4c2CCC4)CCC3)c1,–,inhibition [2]: Active
CC1=C(CCc2ccoc2)[C@@]2(C)CCCC(C)(C)[C@@H]2C/C1=N/OC(=O)c1ccc(Br)cc1,Non-Toxic,inhibition [3]: > 50%
CO[C@H]1C[C@H]2C(C)(C)CCC[C@]2(C)C(CCc2ccoc2)=C1C,Non-Toxic,–
CC1=C(CCc2ccoc2)[C@@]2(C)CCCC(C)(C)[C@@H]2C/C1=N/OS(=O)(=O)c1ccc(C)cc1,Non-Toxic,–
CC1=C(CCc2ccoc2)[C@@]2(C)CCCC(C)(C)[C@@H]2CC(=O)N1,Non-Toxic,–
CC1=C(CCc2ccoc2)[C@@]2(C)CCCC(C)(C)[C@@H]2C/C1=N/OC(=O)N(C)C,Non-Toxic,–
CC1=C(CCc2ccoc2)[C@@]2(C)CCCC(C)(C)[C@@H]2C/C1=N/OC(=O)c1ccc(C(=O)O)cc1,Toxic,–
CC1=C(CCc2ccoc2)[C@@]2(C)CCCC(C)(C)[C@@H]2C/C1=N/OC(=O)c1ccc(C(=O)O/N=C2/C[C@H]3C(C)(C)CCC[C@]3(C)C(CCc3ccoc3)=C2C)cc1,Non-Toxic,inhibition [4]: Active; IC50 [5]: 13.8 µM; inhibition [6]: Active; inhibition [7]: Active; inhibition [8]: Active
CC(=O)O/N=C1/C[C@H]2C(C)(C)CCC[C@]2(C)C(CCc2ccoc2)=C1C,Non-Toxic,–
CC1=C(CCC2CCOC2)[C@@]2(C)CCCC(C)(C)[C@@H]2CC1=O (some centres undefined),Non-Toxic,inhibition [3]: > 50%; inhibition [4]: Active
CCCCCCCCCCCC(=O)O/N=C1/C[C@H]2C(C)(C)CCC[C@]2(C)C(CCc2ccoc2)=C1C,Non-Toxic,inhibition [4]: Active; IC50 [5]: 18.7 µM; inhibition [6]: Active; inhibition [7]: Active; inhibition [8]: Active
CCC1=C(Cc2ccoc2)C(=O)[C@@]2(C)CCCC(C)(C)[C@@H]2C1,Non-Toxic,inhibition [3]: > 50%; inhibition [4]: Active
CC1=C(CCc2ccoc2)[C@@]2(C)CCCC(C)(C)[C@@H]2CC1=O,Toxic,–
